Laboratory results as given in patent US20220204497A1, “NOVEL COMPOUND HAVING ANTICANCER ACTIVITY, AND METHOD FOR PRODUCING SAME” (MEDICINAL BIOCONVERGENCE RESEARCH CENTER, priority 2019, published 2022).

The compounds below were run on A549 cells (assay: Cell viability by MTT method in A549 cells). Settings: 72 hours treatment.
Assay type: cell-based
Set-up: concentration or dose not given beside the values

Compound | Cell Viability (% inhibition) (A549)
Cc1ccc(S(=O)(=O)N[C@H](Cn2c(=O)c(=O)[nH]c3ccccc32)C(=O)Nc2ccc(N3CCOCC3)cc2)cc1 [Compound 139, (R)-3-(2,3-dioxo-3,4-dihydroquinoxalin-1(2H)-yl)-2-(4-methylphenylsulfonamido)-N-(4-morpholinophenyl)propanamide] | 9.99 ± 0.24%
Cc1ccc(S(=O)(=O)N[C@@H](CCCCNC(=O)c2ccc(C(F)(F)F)cn2)C(=O)Nc2ccc(N3CCOCC3)cc2)cc1 [Compound 140, (S)—N-(5-(4-methylphenylsulfonamido)-6-(4-morpholinophenylamino)-6-oxohexyl)-5-(trifluoromethyl)picolinamide] | 86.68 ± 1.25%
Cc1ccc(S(=O)(=O)N[C@@H](CCC(=O)OCc2ccccc2)C(=O)Nc2ccc(N3CCOCC3)cc2)cc1 [Compound 141, (S)-Benzyl 4-(4-methylphenylsulfonamido)-5-(4-morpholinophenylamino)-5-oxopentanoate] | 40.15 ± 6.15%
Cc1ccc(S(=O)(=O)N[C@@H](CC(=O)OCc2ccccc2)C(=O)Nc2ccc(N3CCOCC3)cc2)cc1 [Compound 142, (S)-Benzyl 3-(4-methylphenylsulfonamido)-4-(4-morpholinophenylamino)-4-oxobutanoate] | 15.9 ± 4.84%
CC(C)C[C@H](NS(=O)(=O)c1ccc(C(=O)O)cc1)C(=O)N1CCOCCOCCOCC1 [Compound 157, (S)-4-(N-(4-methyl-1-oxo-1-(1,4,7-trioxa-10-azacyclododecan-10-yl)pentan-2-yl)sulfamoyl)benzoic acid] | 64.40 ± 2.96%
Cc1ccc(S(=O)(=O)N[C@@H](Cc2c[nH]c3ccccc23)C(=O)NNC(=O)c2ccc(N3CCOCC3)cc2)cc1 [Compound 163, (S)—N-(3-(1H-indol-3-yl)-1-(2-(4-morpholinobenzoyl)hydrazinyl)-1-oxopropan-2-yl)-4-methylbenzenesulfonamide] | 18.63 ± 9.48%
Cc1ccc(S(=O)(=O)N[C@@H](Cc2c[nH]c3ccccc23)C(=O)Nc2nc(-c3ccc(N4CCOCC4)cc3)cs2)cc1 [Compound 164, (S)-3-(1-indol-3-yl)-2-(4-methylphenylsulfonamido)-N-(4-(4-morpholinophenyl)thiazol-2-yl)propanamide] | 88.05 ± 0.8%
COC(=O)c1ccc(-c2csc(NC(=O)[C@H](Cc3c[nH]c4ccccc34)NS(=O)(=O)c3ccc(C)cc3)n2)cc1 [Compound 165, (S)-Methyl 4-(2-(3-(1H-indol-3-yl)-2-(4-methylphenylsulfonamido)propanamido)thiazol-4-yl)benzoate] | 78.22 ± 0.97%
O=C(OCc1ccccc1)[C@H](Cc1c[nH]c2ccccc12)NS(=O)(=O)c1ccc(C(F)(F)F)nc1 [Compound 166, (S)-Benzyl 3-(1H-indol-3-yl)-2-(6-(trifluoromethyl)pyridine-3-sulfonamido)propanoate] | 97.48 ± 1%
Cc1ccc(S(=O)(=O)N[C@@H](CCC(=O)Nc2ccc([N+](=O)[O-])cc2)C(=O)Nc2ccc(N3CCOCC3)cc2)cc1 [Compound 167, (S)-2-(4-Methylphenylsulfonamido)-N^1-(morpholinophenyl)-N^5-(4-nitrophenyl)pentanediamide] | 85.33 ± 1.28%
Cc1ccc(S(=O)(=O)N[C@@H](CCCCNC(=O)OCc2ccccc2)C(=O)Nc2ccc(N3CCOCC3)cc2)cc1 [Compound 168, (S)-Benzyl 5-(4-methylphenylsulfonamido)-6-(4-morpholinophenylamino)-6-oxohexylcarbamate] | 84.11 ± 1.25%
Cc1ccc(S(=O)(=O)N[C@@H](CCCCN)C(=O)Nc2ccc(N3CCOCC3)cc2)cc1 [Compound 169, (S)-6-Amino-2-(4-methylphenylsulfonamido)-N-(4-morpholinophenyl)hexanamide] | 3.97 ± ? .91%
COc1cc(OC)cc(C(=O)NCCCC[C@H](NS(=O)(=O)c2ccc(C)cc2)C(=O)Nc2ccc(N3CCOCC3)cc2)c1 [Compound 170, (S)-3,5-Dimethoxy-N-(5-(4-methylphenylsulfonamido)-6-(4-morpholinophenylamino)-6-oxohexyl)benzamide] | 31.41 ± 4.96%
COc1ccc(CNC(=O)CC[C@H](NS(=O)(=O)c2ccc(C)cc2)C(=O)Nc2ccc(N3CCOCC3)cc2)cc1 [Compound 171, (S)—N^5-(4-Methoxybenzyl)-2-(4-methylphenylsulfonamido)-N^1-(4-morpholinophenyl)pentanediamide] | 40.19 ± 4.29%
Cc1ccc(S(=O)(=O)N[C@@H](CCC(=O)Nc2ccccc2)C(=O)Nc2ccc(N3CCOCC3)cc2)cc1 [Compound 172, (S)-2-(4-Methylphenylsulfonamido)-N^1-(4-morpholinophenyl)-N^5-phenylpentanediamide] | −2.14 ± ? .1%
Cc1ccc(S(=O)(=O)N[C@@H](CCC(=O)N2CCOCC2)C(=O)Nc2ccc(N3CCOCC3)cc2)cc1 [Compound 173, (S)-2-(4-Methylphenylsulfonamido)-5-morpholino-N-(4-morpholinophenyl)-5-oxopentanamide] | 0.1 ± 5.51%

Compound | Cell Viability (% inhibition) (A549)
Cc1ccc(S(=O)(=O)N[C@@H](CCC(=O)Nc2ccc(F)cc2)C(=O)Nc2ccc(N3CCOCC3)cc2)cc1 [Compound 174, (S)—N^5-(4-fluorophenyl)-2-(4-methylphenylsulfonamido)-N^1-(4-morpholinophenyl)pentanediamide] | 10.8 ± 2.26%
Cc1ccc(S(=O)(=O)N[C@@H](CCC(=O)Nc2ccc(C(C)(C)C)cc2)C(=O)Nc2ccc(N3CCOCC3)cc2)cc1 [Compound 175, (S)—N^5-(4-tert-butylphenyl)-2-(4-methylphenylsulfonamido)-N^1-(4-morpholinophenyl)pentanediamide] | 28.4 ± 4.82%
Cc1ccc(S(=O)(=O)N[C@@H](CC(=O)Nc2ccc([N+](=O)[O-])cc2)C(=O)Nc2ccc(N3CCOCC3)cc2)cc1 [Compound 177, (S)-2-(4-Methylphenylsulfonamido)-N^1-(4-morpholinophenyl)-N^4-(4-nitrophenyl)succinamide] | 53.91 ± 0.92%
O=C([C@H](Cc1c[nH]c2ccccc12)NS(=O)(=O)c1ccc(Br)cc1)n1ccc(-c2ccccc2)n1 [Compound 185, (S)—N-(3-(1H-indol-3-yl)-1-oxo-1-(3-phenyl-1H-pyrazol-1-yl)propan-2-yl)-4-bromobenzenesulfonamide] | 13.09 ± 18.13%
CCCCCCCCCCCC(=O)NNC(=O)[C@H](Cc1c[nH]c2ccccc12)NS(=O)(=O)c1ccc(Br)cc1 [Compound 194, (S)-4-Bromo-N-(1-(2-dodecanoylhydrazinyl)-3-(1H-indol-3-yl)-1-oxopropan-2-yl)benzenesulfonamide] | 86.99 ± 0.6%
Cc1ccc(S(=O)(=O)N[C@@H](Cc2c[nH]c3ccccc23)C(=O)NC23CC4CC(CC(C4)C2)C3)cc1 [Compound 204, (S)—N-((3R,5R,7R)-adamantan-1-yl)-3-(1H-indol-3-yl)-2-(4-methylphenylsulfonamido)propanamide] | 78.9 ± 2.62%
COc1ccc(CCNC(=O)[C@H](Cc2c[nH]c3ccccc23)NS(=O)(=O)c2ccc(C)cc2)cc1 [Compound 205, (S)-3-(1H-indol-3-yl)-N-(4-methoxyphenethyl)-2-(4-methylphenylsulfonamido)propanamide] | 65.64 ± 5.37%
Cc1ccc(S(=O)(=O)N[C@@H](Cc2c[nH]c3ccccc23)C(=O)NCCCc2ccccc2)cc1 [Compound 206, (S)-3-(1H-indol-3-yl)-2-(4-methylphenylsulfonamido)-N-(3-phenylpropyl)propanamide] | 67.48 ± 2.35%
Cc1ccc(S(=O)(=O)N[C@@H](Cc2c[nH]c3ccccc23)C(=O)NCCc2ccc(F)cc2)cc1 [Compound 207, (S)—N-(4-fluorophenethyl)-3-(1H-indol-3-yl)-2-(4-methylphenylsulfonamido)propanamide] | 64.02 ± 2.15%
Cc1ccc(S(=O)(=O)N[C@@H](Cc2c[nH]c3ccccc23)C(=O)Nc2nc(-c3ccc(C(F)(F)F)cc3)cs2)cc1 [Compound 208, (S)-3-(1H-indol-3-yl)-2-(4-methylphenylsulfonamido)-N-(4-(4-(trifluoromethyl)phenyl)thiazol-2-yl)propanamide] | 82.89 ± 1.06%
O=C(NCCc1c[nH]c2ccccc12)[C@H](Cc1c[nH]c2ccccc12)NS(=O)(=O)c1ccc(Br)cc1 [Compound 209, (S)—N-(2-(1H-indol-3-yl)ethyl)-2-(4-bromophenylsulfonamido)-3-(1H-indol-3-yl)propanamide] | 89.27 ± 0.77%
COc1ccc(-c2csc(NC(=O)[C@H](Cc3c[nH]c4ccccc34)NC(=O)c3ccc(C)cc3)n2)cc1 [Compound 210, (S)—N-(3-(1H-indol-3-yl)-1-((4-(4-methoxyphenyl)thiazol-2-yl)amino)-1-oxopropan-2-yl)-4-methylbenzamide] | 40.83 ± 8.13%
COc1ccc(-c2csc(NC(=O)[C@H](Cc3c[nH]c4ccccc34)NS(=O)(=O)c3ccc(Cl)cc3)n2)cc1 [Compound 211, (S)-2-(4-Chlorophenylsulfonamido)-3-(1H-indol-3-yl)-N-(4-(4-methoxyphenyl)thiazol-2-yl)propanamide] | 83.3 ± 1.04%
COc1ccc(-c2csc(NC(=O)[C@H](Cc3c[nH]c4ccccc34)NS(=O)(=O)c3ccc(C(F)(F)F)cc3)n2)cc1 [Compound 212, (S)-3-(1H-indol-3-yl)-N-(4-(4-methoxyphenyl)thiazol-2-yl)-2-(4-(trifluoromethyl)phenylsulfonamido)propanamide] | 84.25 ± 0.99%
COc1ccc(-c2csc(NC(=O)[C@H](Cc3c[nH]c4ccccc34)NS(=O)(=O)c3ccc(F)cc3)n2)cc1 [Compound 213, (S)-2-(4-Fluorophenylsulfonamido)-3-(1H-indol-3-yl)-N-(4-(4-methoxyphenyl)thiazol-2-yl)propanamide] | 83.29 ± 1.04%
